In this experiment the test system is L1210 leukemia ip in BDF1 mice, survival T/C. The experiment can be described thus: NCI In Vivo Anticancer Drug Screen. Data for tumor model L1210 Leukemia (intraperitoneal) in B6D2F1 (BDF1) mice. Conditions: endpoint: mean survival time, higher = longer survival. The procedure, abridged: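 Read-out is survival time, reported as the treated-group measurement over the vehicle-control measurement.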

[1] abbreviates: dose: 100.0 mg/kg/injection, schedule: Q01DX001 (ip), vehicle: carboxymethylcellulose (CMC).
[2] abbreviates: dose: 100.0 mg/kg/injection, schedule: Q04DX003 (ip), vehicle: Klucel (hydroxypropylcellulose) (HPC).
Setting [3] is: dose: 200.0 mg/kg/injection, schedule: Q04DX003 (ip), vehicle: Klucel (hydroxypropylcellulose) (HPC).
Where [4] appears, read: dose: 100.0 mg/kg/injection, schedule: Q04DX003 (ip), vehicle: saline.
The mark [5] stands for this setting: dose: 100.0 mg/kg/injection, schedule: Q01DX009 (ip), vehicle: saline with Tween-80.
[6] abbreviates: dose: 100.0 mg/kg/injection, schedule: Q01DX009 (ip), vehicle: Klucel (hydroxypropylcellulose) (HPC).
The mark [7] stands for this setting: dose: 200.0 mg/kg/injection, schedule: Q01DX009 (ip), vehicle: Klucel (hydroxypropylcellulose) (HPC).
Setting [8] is: dose: 400.0 mg/kg/injection, schedule: Q01DX009 (ip), vehicle: Klucel (hydroxypropylcellulose) (HPC).
Setting [9] is: dose: 100.0 mg/kg/injection, schedule: Q04DX003 (ip), vehicle: saline with Tween-80.
The mark [10] stands for this setting: dose: 200.0 mg/kg/injection, schedule: Q04DX003 (ip), vehicle: saline with Tween-80.

Each structure is given as a SMILES string. Where “and” joins values, the source holds several entries; their conditions need not be identical. Equal values may be shown once. Inconclusive results and toxic doses are left out.

Turning to `N#CCCNC(=O)N(CCC#N)N=O`, the T/C reads like this: (dose: 3.12 mg/kg/injection, schedule: Q01DX Z (ip), vehicle: carboxymethylcellulose (CMC)) 100 % of control; (dose: 6.25 mg/kg/injection, schedule: Q01DX Z (ip), vehicle: carboxymethylcellulose (CMC)) 102 % of control; (dose: 12.5 mg/kg/injection, schedule: Q01DX Z (ip), vehicle: carboxymethylcellulose (CMC)) 103 % of control; (dose: 25.0 mg/kg/injection, schedule: Q01DX Z (ip), vehicle: carboxymethylcellulose (CMC)) 118 % of control; (dose: 75.0 mg/kg/injection, schedule: Q01DX Z (ip), vehicle: carboxymethylcellulose (CMC)) 153 % of control; (dose: 100.0 mg/kg/injection, schedule: Q01DX Z (ip), vehicle: carboxymethylcellulose (CMC)) 118 % of control. The T/C runs as follows: (dose: 150.0 mg/kg/injection, schedule: Q01DX Z (ip), vehicle: carboxymethylcellulose (CMC)) 155 % of control; (dose: 200.0 mg/kg/injection, schedule: Q01DX Z (ip), vehicle: carboxymethylcellulose (CMC)) 116 % of control.
With `CN1C(OO)CCOP1(=O)N(CCCl)CCCl` (stereo not drawn), the T/C was 96 % of control (dose: 75.0 mg/kg/injection, schedule: Q01DX001 (ip), vehicle: DMSO) and 99 % of control (dose: 150.0 mg/kg/injection, schedule: Q01DX001 (ip), vehicle: DMSO).
In the case of `O=C(c1ccccc1)C(Nc1ccc(Br)cc1)Nc1ccc(Br)cc1`, the T/C is 96 % of control under setting [1]; 102 % of control (dose: 200.0 mg/kg/injection, schedule: Q01DX001 (ip), vehicle: carboxymethylcellulose (CMC)); 96 % of control (dose: 400.0 mg/kg/injection, schedule: Q01DX001 (ip), vehicle: carboxymethylcellulose (CMC)).
With `Nc1ncnc2c1ncn2C1SC(CO)C2OC21` (stereo not drawn), the T/C is, setting by setting: (dose: 25.0 mg/kg/injection, schedule: Q01DX001 (ip), vehicle: carboxymethylcellulose (CMC)) 93 % of control; (dose: 50.0 mg/kg/injection, schedule: Q01DX001 (ip), vehicle: carboxymethylcellulose (CMC)) 96 % of control; under setting [1], 90 % of control; (dose: 200.0 mg/kg/injection, schedule: Q01DX005 (ip), vehicle: saline) 94 % of control.
Take `Cc1c(C)c([N+](=O)[O-])c(/C=C/C(=O)O)c(C)c1[N+](=O)[O-]`: the T/C is, setting by setting: under setting [2], 97 % of control; under setting [3], 86 % of control.
With `O=c1[nH]c(C(F)(F)F)c(Cc2ccccc2)c(=O)[nH]1`, the T/C reads like this: (dose: 100.0 mg/kg/injection, schedule: Q01DX001 (ip), vehicle: gum acacia) 95 % of control; (dose: 200.0 mg/kg/injection, schedule: Q01DX001 (ip), vehicle: gum acacia) 107 % of control.
`CC(=O)NC1COC(O)C(O)C1O` (stereo not drawn): the T/C under setting [4] was 94 % of control; the T/C (dose: 200.0 mg/kg/injection, schedule: Q04DX003 (ip), vehicle: saline) is 101 % of control; the T/C (dose: 400.0 mg/kg/injection, schedule: Q04DX003 (ip), vehicle: saline) is 101 % of control.
Regarding `O=P(c1ccc[nH]1)(c1ccc[nH]1)c1ccc[nH]1`, the T/C (dose: 100.0 mg/kg/injection, schedule: Q04DX002 (ip), vehicle: gum acacia) is 101 % of control; the T/C (dose: 200.0 mg/kg/injection, schedule: Q04DX002 (ip), vehicle: gum acacia) is 93 % of control; the T/C (dose: 400.0 mg/kg/injection, schedule: Q04DX002 (ip), vehicle: gum acacia) was 108 % of control.
Take `O=S(C/C=C/CS(=O)c1ccccc1)c1ccccc1` (stereo not drawn): the T/C reads like this: (dose: 100.0 mg/kg/injection, schedule: Q04DX002 (ip), vehicle: Klucel (hydroxypropylcellulose) (HPC)) 105 % of control; (dose: 200.0 mg/kg/injection, schedule: Q04DX002 (ip), vehicle: Klucel (hydroxypropylcellulose) (HPC)) 116 % of control; (dose: 400.0 mg/kg/injection, schedule: Q04DX002 (ip), vehicle: Klucel (hydroxypropylcellulose) (HPC)) 103 % of control.
Take `COC(=N)c1ccc(Cl)cc1`: the T/C was 88 % of control under setting [5] and 93 % of control (dose: 200.0 mg/kg/injection, schedule: Q01DX009 (ip), vehicle: saline with Tween-80).
Consider `COc1ccc(-n2c(=O)c(N=Nc3ccccc3OC)c(O)n(-c3ccccc3C)c2=S)cc1`, for which the T/C (dose: 100.0 mg/kg/injection, schedule: Q01DX001 (ip), vehicle: Klucel (hydroxypropylcellulose) (HPC)) was 98 % of control and the T/C (dose: 200.0 mg/kg/injection, schedule: Q01DX001 (ip), vehicle: Klucel (hydroxypropylcellulose) (HPC)) was 101 % of control.
On to `CCOC(=O)C1=NNC(C(C)=O)(C(=O)OCC)C1CC` (stereo not drawn), for which the T/C runs as follows: under setting [6], 102 % of control; under setting [7], 95 % of control; under setting [8], 96 % of control.
Consider `CCOC(=O)c1cnc(SC)nc1Oc1ccccc1F`, for which the T/C is 105 % of control under setting [6]; 96 % of control under setting [2]; 96 % of control under setting [7]; 119 % of control under setting [3]; 97 % of control under setting [8]; 91 % of control (dose: 400.0 mg/kg/injection, schedule: Q04DX003 (ip), vehicle: Klucel (hydroxypropylcellulose) (HPC)).
Take `CCCCCCCCCN1CCCC(OC(=O)N(C)C)C1` (stereo not drawn): the T/C is 103 % of control (dose: 25.0 mg/kg/injection, schedule: Q04DX002 (ip), vehicle: saline); 103 % of control (dose: 50.0 mg/kg/injection, schedule: Q04DX002 (ip), vehicle: saline); 100 % of control (dose: 100.0 mg/kg/injection, schedule: Q04DX002 (ip), vehicle: saline).
`COC(=O)CNC(=O)C(C)NC(=O)OCc1ccccc1` (stereo not drawn): the T/C under setting [9] is 102 % of control; the T/C under setting [10] is 98 % of control; the T/C (dose: 400.0 mg/kg/injection, schedule: Q04DX003 (ip), vehicle: saline with Tween-80) was 100 % of control.
In the case of `c1cnc2ccc3c(c2c1)COCO3`, the T/C (dose: 100.0 mg/kg/injection, schedule: Q01DX001 (ip), vehicle: saline) was 93 % of control.
As for `Nc1nc(SN=Nc2ccc([As](=O)(O)O)cc2)c2[nH]cnc2n1`, the T/C (dose: 0.5 mg/kg/injection, schedule: Q01DX Z (ip), vehicle: other) is 110 % of control; the T/C (dose: 0.7 mg/kg/injection, schedule: Q01DX Z (ip), vehicle: other) is 114 % of control; the T/C (dose: 1.25 mg/kg/injection, schedule: Q01DX015 (ip), vehicle: carboxymethylcellulose (CMC)) was 106 % of control; the T/C (dose: 1.3 mg/kg/injection, schedule: Q01DX Z (ip), vehicle: other) is 107 % of control; the T/C (dose: 2.5 mg/kg/injection, schedule: Q01DX015 (ip), vehicle: carboxymethylcellulose (CMC)) is 115 % of control; the T/C (dose: 10.0 mg/kg/injection, schedule: Q01DX015 (ip), vehicle: carboxymethylcellulose (CMC)) is 159 % of control. The T/C was 151 % of control and 154 % of control (dose: 11.0 mg/kg/injection, schedule: Q01DX Z (ip), vehicle: other); 113 % of control (dose: 25.0 mg/kg/injection, schedule: Q## X001 (ip), vehicle: carboxymethylcellulose (CMC)); 123 % of control (dose: 50.0 mg/kg/injection, schedule: Q## X001 (ip), vehicle: carboxymethylcellulose (CMC)); 106 % of control (dose: 56.0 mg/kg/injection, schedule: Q01DX Z (ip), vehicle: other).
Consider `Cc1nc(C[N+](C)(C)C)c2cnccn12`, for which the T/C under setting [4] was 102 % of control.
In the case of `O=C(CC(O)(C(F)(F)F)C(F)(F)F)c1cccs1`, the T/C was 109 % of control (dose: 50.0 mg/kg/injection, schedule: Q01DX009 (ip), vehicle: saline with Tween-80); 98 % of control (dose: 50.0 mg/kg/injection, schedule: Q04DX003 (ip), vehicle: saline with Tween-80); 102 % of control under setting [5]; 98 % of control under setting [9]; 96 % of control under setting [10].
With `COC(=O)c1ccccc1NC(c1ccccn1)c1ccc2cccnc2c1O` (stereo not drawn), the T/C was 108 % of control (dose: 125.0 mg/kg/injection, schedule: Q01DX Z (ip), vehicle: carboxymethylcellulose (CMC)); 102 % of control (dose: 250.0 mg/kg/injection, schedule: Q01DX Z (ip), vehicle: carboxymethylcellulose (CMC)); 101 % of control (dose: 500.0 mg/kg/injection, schedule: Q01DX Z (ip), vehicle: carboxymethylcellulose (CMC)).
On to `Cc1cccc(NC(=O)N(C)N)c1`, for which the T/C is, setting by setting: (dose: 75.0 mg/kg/injection, schedule: Q01DX001 (ip), vehicle: carboxymethylcellulose (CMC)) 96 % of control; (dose: 150.0 mg/kg/injection, schedule: Q01DX001 (ip), vehicle: carboxymethylcellulose (CMC)) 104 % of control.
For the compound `N#Cc1ccc(OCc2nc(N)nc(N)c2-c2ccc(Cl)cc2)cc1`, the T/C was 104 % of control under setting [9] and 100 % of control under setting [10].

Values taken from PubChem BioAssay AID248 (DTP/NCI, 2004).
